Assay results taken from patent publication US9533987B2, “Heterocyclic derivates” (KALVISTA PHARMACEUTICALS LIMITED, priority 2013, dated 2017).

How the values were obtained:
Assay type in all cases: biochemical
Factor XIIa = Factor XIIa (Homo sapiens (Human), UniProt P00748); test: Determination of enzyme selectivity, Factor XIIa; settings: substrate at Km concentration
Experimental: Determination of Enzyme Selectivity
Human serine protease enzymes plasmin, thrombin, trypsin, Factor Xa and Factor XIIa were assayed for enzymatic activity using an appropriate fluorogenic substrate. Protease activity was measured by monitoring the accumulation of liberated fluorescence from the substrate over 5 minutes. The linear rate of fluorescence increase per minute was expressed as percentage (%) activity. The Km for the cleavage of each substrate was determined by standard transformation of the Michaelis-Menten equation.

Human plasma kallikrein = Human plasma kallikrein (Homo sapiens (Human), UniProt P03952); test: Determination of the IC50 for plasma kallikrein (fluorogenic substrate H-DPro-Phe-Arg-AFC); settings: 37° C., read-out: IC50 (human PKaI)
Experimental: Determination of the IC50 for Plasma Kallikrein
(§1) Human plasma kallikrein (Protogen) was incubated at 37° C. with the fluorogenic substrate H-DPro-Phe-Arg-AFC and various concentrations of the test compound. Residual enzyme activity (initial rate of reaction) was determined by measuring the change in […] at 410 nm and the IC50 value for the test compound was determined.

Human KLK1 = Human KLK1 (Homo sapiens (Human), UniProt P06870); test: Determination of the IC50 for KLK1 (fluorogenic substrate H-DVal-Leu-Arg-AFC); settings: 37° C.
Experimental: Determination of the IC50 for KLK1
as §1, with “KLK1 (Callbiochem)” for “plasma kallikrein (Protogen)”, “H-DVal-Leu-Arg-AFC” for “H-DPro-Phe-Arg-AFC”

Chain of Human plasma kallikrein (P03952 391-638): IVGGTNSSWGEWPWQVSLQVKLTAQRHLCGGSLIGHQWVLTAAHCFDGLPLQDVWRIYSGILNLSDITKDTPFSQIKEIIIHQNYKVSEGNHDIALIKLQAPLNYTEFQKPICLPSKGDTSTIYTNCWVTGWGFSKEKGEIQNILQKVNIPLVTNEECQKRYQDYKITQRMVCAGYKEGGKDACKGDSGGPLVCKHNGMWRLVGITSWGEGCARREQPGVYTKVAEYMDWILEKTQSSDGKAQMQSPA
Chain of Human plasma kallikrein (P03952 20-390 partner): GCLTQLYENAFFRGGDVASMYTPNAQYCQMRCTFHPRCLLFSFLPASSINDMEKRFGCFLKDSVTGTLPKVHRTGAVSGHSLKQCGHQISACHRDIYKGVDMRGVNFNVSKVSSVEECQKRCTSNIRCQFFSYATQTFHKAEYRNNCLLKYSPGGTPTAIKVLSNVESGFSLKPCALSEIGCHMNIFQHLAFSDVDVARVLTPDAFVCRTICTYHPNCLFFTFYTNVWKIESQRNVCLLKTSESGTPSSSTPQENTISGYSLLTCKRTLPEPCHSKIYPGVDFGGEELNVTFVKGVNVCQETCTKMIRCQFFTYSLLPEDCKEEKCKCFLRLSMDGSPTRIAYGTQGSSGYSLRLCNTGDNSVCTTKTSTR
Chain of Factor XIIa (P00748 373-615): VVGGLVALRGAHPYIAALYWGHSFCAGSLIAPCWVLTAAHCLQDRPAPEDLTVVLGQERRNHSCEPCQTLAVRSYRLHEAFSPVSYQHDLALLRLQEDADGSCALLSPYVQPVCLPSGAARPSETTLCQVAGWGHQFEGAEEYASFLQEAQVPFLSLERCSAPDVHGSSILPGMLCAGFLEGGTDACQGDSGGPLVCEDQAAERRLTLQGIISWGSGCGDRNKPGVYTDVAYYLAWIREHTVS
Chain of Human KLK1 (P06870 25-262): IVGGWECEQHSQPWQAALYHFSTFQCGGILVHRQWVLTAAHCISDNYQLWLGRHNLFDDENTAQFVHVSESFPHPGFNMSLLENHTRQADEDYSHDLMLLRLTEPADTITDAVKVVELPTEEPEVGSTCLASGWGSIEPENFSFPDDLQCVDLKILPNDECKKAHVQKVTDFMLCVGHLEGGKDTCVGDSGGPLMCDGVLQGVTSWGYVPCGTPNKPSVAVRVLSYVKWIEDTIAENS

| Molecule | IC50 (Factor XIIa) [nM] | IC50 (Human plasma kallikrein) [µM] | IC50 (Human KLK1) [µM] |
| --- | --- | --- | --- |
| Cc1cnn(Cc2ccc(Cn3cc(C(=O)NCc4cccc5[nH]ncc45)c(C(F)(F)F)n3)cc2)c1 [Example 124, 1-[4-(4-Methyl-pyrazol-1-ylmethyl)-benzyl]-3-trifluoromethyl-1H-pyrazole-4-carboxylic acid (1H-indazol-4-ylmethyl)-amide] | > 10000 | 0.146 | 7.23 |
| CCn1c(C(=O)NCc2ccc3c(N)nccc3c2)cc(C)c1Cc1ccc(Cn2cc(C)cn2)cc1 [Example 28, 1-Ethyl-4-methyl-5-[4-(4-methyl-pyrazol-1-ylmethyl)-benzyl]-1H-pyrrole-2-carboxylic acid (1-amino-isoquinolin-6-ylmethyl)-amide] | > 10000 | 0.0637 | > 10 |
| Cc1nc(C)c(N(C)Cc2ccc(Cn3cc(C(=O)NCc4ccc5c(N)nccc5c4)cn3)cc2)s1 [Example 46, 1-(4-{[(2,4-Dimethyl-thiazol-5-yl)-methyl-amino]-methyl}-benzyl)-1H-pyrazole-4-carboxylic acid (1-amino-isoquinolin-6-ylmethyl)-amide] | > 40000 | – | – |
| Cc1cnn(Cc2ccc(Cn3cc(C(=O)NCc4cc5cc[nH]c5nc4C)cn3)cc2)c1 [Example 22, 1-[4-(4-Methyl-pyrazol-1-ylmethyl)-benzyl]-1H-pyrazole-4-carboxylic acid (6-methyl-1H-pyrrolo[2,3-b]pyridin-5-ylmethyl)-amide] | > 10000 | 0.132 | > 10 |
| O=C(NCc1cnc2[nH]ccc2c1)c1cnn(Cc2cccc(Oc3ccccc3)c2)c1 [Example 108, 1-(3-Phenoxy-benzyl)-1H-pyrazole-4-carboxylic acid (1H-pyrrolo[2,3-b]pyridin-5-ylmethyl)-amide] | > 40000 | 22 | 20.6 |
| Nc1nccc2cc(CNC(=O)c3cn(Cc4ccc(N5CC[C@H](F)C5)nc4)nc3C(F)(F)F)ccc12 [Example 60, 1-[6-((S)-3-Fluoro-pyrrolidin-1-yl)-pyridin-3-ylmethyl]-3-trifluoromethyl-1H-pyrazole-4-carboxylic acid (1-amino-isoquinolin-6-ylmethyl)-amide] | > 10000 | 0.00961 | 9.57 |
| Cc1cnn(Cc2ccc(Cn3cc(C(=O)NCc4ccc5c(N)nccc5c4)c(C(C)C)n3)cc2)c1 [Example 13, 3-Isopropyl-1-[4-(4-methyl-pyrazol-1-ylmethyl)-benzyl]-1H-pyrazole-4-carboxylic acid (1-amino-isoquinolin-6-ylmethyl)-amide] | > 10000 | 0.00214 | 5.16 |
| Cc1cnn(Cc2ccc(Cn3cc(C(=O)NCc4ccc5c(N)nccc5c4)c(N)n3)cc2)c1 [Example 37, 3-Amino-1-[4-(4-methyl-pyrazol-1-ylmethyl)-benzyl]-1H-pyrazole-4-carboxylic acid (1-amino-isoquinolin-6-ylmethyl)-amide] | > 10000 | 0.00067 | 3.53 |
| Nc1nccc2cc(CNC(=O)c3cn(Cc4ccnc(N5CCCC5)c4)nc3C(F)(F)F)ccc12 [Example 54, 1-(2-Pyrrolidin-1-yl-pyridin-4-ylmethyl)-3-trifluoromethyl-1H-pyrazole-4-carboxylic acid (1-amino-isoquinolin-6-ylmethyl)-amide] | > 4000 | 0.0467 | 18.2 |
| Nc1nccc2cc(CNC(=O)c3cn(Cc4ccc(N5CCC(F)(F)C5)nc4)nc3C(F)(F)F)ccc12 [Example 57, 1-[6-(3,3-Difluoro-pyrrolidin-1-yl)-pyridin-3-ylmethyl]-3-trifluoromethyl-1H-pyrazole-4-carboxylic acid (1-amino-isoquinolin-6-ylmethyl)-amide] | > 10000 | 0.0149 | > 10 |
| C[C@H]1CCN(c2ccc(Cn3cc(C(=O)NCc4ccc5c(N)nccc5c4)c(C(F)(F)F)n3)cn2)C1 [Example 59, 1-[6-((S)-3-Methyl-pyrrolidin-1-yl)-pyridin-3-ylmethyl]-3-trifluoromethyl-1H-pyrazole-4-carboxylic acid (1-amino-isoquinolin-6-ylmethyl)-amide] | > 1000 | 0.00584 | 4 |
| Cc1cnn(Cc2ccc(Cn3cc(C(=O)NCc4ccc5c(N)nccc5c4)c(C4CCC4)n3)cc2)c1 [Example 14, 3-Cyclobutyl-1-[4-(4-methyl-pyrazol-1-ylmethyl)-benzyl]-1H-pyrazole-4-carboxylic acid (1-amino-isoquinolin-6-ylmethyl)-amide] | > 10000 | 0.00462 | 5.97 |
| Cc1cnn(Cc2ccc(Cn3cc(C(=O)NCc4cc5cc[nH]c5nc4C)nn3)cc2)c1 [Example 116, 1-[4-(4-Methyl-pyrazol-1-ylmethyl)-benzyl]-1H-[1,2,3]triazole-4-carboxylic acid (6-methyl-1H-pyrrolo[2,3-b]pyridin-5-ylmethyl)-amide] | > 10000 | 0.507 | > 10 |
| Cc1cnn(Cc2ccc(Cc3nc(C)c(C(=O)NCc4ccc5c(N)nccc5c4)s3)cc2)c1 [Example 18, 4-Methyl-2-[4-(4-methyl-pyrazol-1-ylmethyl)-benzyl]-thiazole-5-carboxylic acid (1-amino-isoquinolin-6-ylmethyl)-amide] | > 10000 | 0.032 | > 10 |
| C[C@H]1CCN(c2cc(Cn3cc(C(=O)NCc4ccc5c(N)nccc5c4)c(C(F)(F)F)n3)ccn2)C1 [Example 68, 1-[2-((S)-3-Methyl-pyrrolidin-1-yl)-pyridin-4-ylmethyl]-3-trifluoromethyl-1H-pyrazole-4-carboxylic acid (1-amino-isoquinolin-6-ylmethyl)-amide] | > 10000 | 0.059 | 9.76 |
| Cc1nc(C)c(N(C)Cc2ccc(Cn3cc(C(=O)NCc4cnc5[nH]ccc5c4)cn3)cc2)s1 [Example 105, 1-(4-{[(2,4-Dimethyl-thiazol-5-yl)-methyl-amino]-methyl}-benzyl)-1H-pyrazole-4-carboxylic acid (1H-pyrrolo[2,3-b]pyridin-5-ylmethyl)-amide] | > 40000 | 17 | > 40 |
| Cc1cnn(Cc2ccc(Cn3cc(C(=O)NCc4c(C)nc5[nH]ccc5c4C)cn3)cc2)c1 [Example 118, 1-[4-(4-Methyl-pyrazol-1-ylmethyl)-benzyl]-1H-pyrazole-4-carboxylic acid (4,6-dimethyl-1H-pyrrolo[2,3-b]pyridin-5-ylmethyl)-amide] | > 40000 | 0.014 | > 40 |
| C[C@H]1CCCN1c1ccc(Cn2cc(C(=O)NCc3ccc4c(N)nccc4c3)c(C(F)(F)F)n2)cn1 [Example 62, 1-[6-((S)-2-Methyl-pyrrolidin-1-yl)-pyridin-3-ylmethyl]-3-trifluoromethyl-1H-pyrazole-4-carboxylic acid (1-amino-isoquinolin-6-ylmethyl)-amide] | > 10000 | 0.0136 | > 10 |
| Nc1nccc2cc(CNC(=O)c3cnn(Cc4cc5cc(OC(F)(F)F)ccc5[nH]4)c3)ccc12 [Example 52, 1-(5-Trifluoromethoxy-1H-indol-2-ylmethyl)-1H-pyrazole-4-carboxylic acid (1-amino-isoquinolin-6-ylmethyl)-amide] | > 40000 | 0.3 | > 40 |
| CCn1c(C(=O)NCc2ccc3c(N)nccc3c2)cc(C)c1Cc1ccc(N2CCCC2)nc1 [Example 30, 1-Ethyl-4-methyl-5-(6-pyrrolidin-1-yl-pyridin-3-ylmethyl)-1H-pyrrole-2-carboxylic acid (1-amino-isoquinolin-6-ylmethyl)-amide] | > 10000 | 1.47 | 5.75 |
| 1-[4-(4-Methyl-pyrazol-1-ylmethyl)-benzyl]-3-trifluoromethyl-1H-pyrazole-4-carboxylic acid (4,6-dimethyl-1H-pyrrolo[2,3-b]pyridin-5-ylmethyl)-amide [Example 119] | > 4000 | 0.0866 | > 4 |
| Cc1cnn(Cc2ccc(Cn3cc(C(=O)NCc4c(C)nc5[nH]ccc5c4C)c(C4CC4)n3)cc2)c1 [Example 122, 3-Cyclopropyl-1-[4-(4-methyl-pyrazol-1-ylmethyl)-benzyl]-1H-pyrazole-4-carboxylic acid (4,6-dimethyl-1H-pyrrolo[2,3-b]pyridin-5-ylmethyl)-amide] | – | 0.101 | > 10 |
| N#Cc1cnn(Cc2ccc(Cn3cc(C(=O)NCc4ccc5c(N)nccc5c4)c(C(F)(F)F)n3)cc2)c1 [Example 77, 1-[4-(4-Cyano-pyrazol-1-ylmethyl)-benzyl]-3-trifluoromethyl-1H-pyrazole-4-carboxylic acid (1-amino-isoquinolin-6-ylmethyl)-amide] | – | 0.0854 | > 10 |
| Nc1nccc2cc(CNC(=O)c3cn(Cc4ccc(Cn5cccn5)cc4)nc3C(F)(F)F)ccc12 [Example 76, 1-(4-Pyrazol-1-ylmethyl-benzyl)-3-trifluoromethyl-1H-pyrazole-4-carboxylic acid (1-amino-isoquinolin-6-ylmethyl)-amide] | – | 0.00092 | > 1 |
